Data set [1] addresses T1, Glutathione S-transferase omega-1 (Homo sapiens, UniProt P78417).
T1 sequence (P78417 whole entry): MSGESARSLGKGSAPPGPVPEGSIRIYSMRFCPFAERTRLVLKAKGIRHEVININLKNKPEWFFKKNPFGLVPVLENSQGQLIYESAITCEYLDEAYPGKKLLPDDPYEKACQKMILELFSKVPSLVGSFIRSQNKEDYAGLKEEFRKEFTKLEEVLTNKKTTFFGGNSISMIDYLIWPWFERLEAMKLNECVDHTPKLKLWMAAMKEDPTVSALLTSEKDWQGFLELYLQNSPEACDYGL
The data set is described as follows: Inhibition of recombinant GSTO1-1 (unknown origin) expressed in Escherichia coli using S-(4-nitrophenacyl)glutathione as substrate preincubated for 2 mins followed by substrate addition by 4-NPG assay.

Data set [2] in a line: Drug level in Swiss mouse plasma at 30 mg/kg, ip after 5 mins by UPLC-MS analysis. The data set is classed as ADME, organism-based.
In data set [3] the target is T1, Glutathione S-transferase omega-1. The data set is described as follows: Inhibition of recombinant GSTO1-1 (unknown origin) expressed in Escherichia coli assessed as inhibitor constant using S-(4-nitrophenacyl)glutathione as substrate preincubated for 1 to 6 mins followed by substrate addition by spectrophotmetric analysis.
Data set [4] has as its target T2, Glutathione S-transferase omega-1 (Mus musculus) (UniProt O09131).
T2 sequence (whole entry): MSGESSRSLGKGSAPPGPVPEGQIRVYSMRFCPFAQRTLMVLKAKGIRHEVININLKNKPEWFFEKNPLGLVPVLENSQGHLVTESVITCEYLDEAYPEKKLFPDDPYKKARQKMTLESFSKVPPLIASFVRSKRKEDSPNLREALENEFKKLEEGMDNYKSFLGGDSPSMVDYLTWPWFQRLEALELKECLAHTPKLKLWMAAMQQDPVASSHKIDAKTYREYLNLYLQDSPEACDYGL
The data set is described as follows: Inhibition of GSTO1-1 in mouse bone marrow derived macrophage cells assessed as reduction in LPS-induced IL-1beta release by measuring IL1 beta level at 5 uM pretreated with LPS for 3 hrs followed by compound addition and measured after 1 hr by ELISA relative to control. More on the design: scale not given: the % may be the effect or the level left. In general terms: ELISA stands for enzyme-linked immunosorbent assay.

Data set [5] in a line: Drug concentration in Swiss mouse plasma at 30 mg/kg, ip measured at 1 hr post dose by UPLC-MS analysis. Type of data set: ADME, organism-based.
Data set [6] concerns the target T3, Glutathione S-transferase omega-1 (Homo sapiens) (UniProt P78417).
T3 sequence (whole entry): T1 sequence (P78417 whole entry)
Description: Inhibition of recombinant GSTO1-1 (unknown origin) expressed in Escherichia coli assessed as Kinact using S-(4-nitrophenacyl)glutathione as substrate preincubated for 1 to 6 mins followed by substrate addition by spectrophotmetric analysis

Data set [7] can be described thus: Drug concentration in Swiss mouse plasma at 30 mg/kg, ip measured up to 2 hrs post dose by UPLC-MS analysis. Type of data set: ADME, organism-based.
A short description of data set [8]: Cmax in Swiss mouse at 30 […], ip measured at 5 mins post dose by UPLC-MS analysis. The data set is classed as ADME, organism-based. Details: route intraperitoneal. The conditions noted are these: in vivo.
The nature of data set [9]: Half life in Swiss mouse at 30 mg/kg, ip after 0.083 to 24 hrs by UPLC-MS analysis. The data set is classed as ADME, organism-based. To be noted: in vivo.
Data set [10] in a line: Drug concentration in Swiss mouse plasma at 30 mg/kg, ip measured up to 4 hrs post dose by UPLC-MS analysis. Type of data set: ADME, organism-based.
The nature of data set [11]: Half life in human liver microsomes at 1 uM incubated for 60 mins in presence of NADPH by UPLC-MS analysis. The data set is classed as ADME, Microsome. Background: Liver microsomes are vesicles of endoplasmic reticulum, rich in cytochrome P450 enzymes.
Data set [12] can be described thus: Half life in mouse liver microsomes at 1 uM incubated for 60 mins in presence of NADPH by UPLC-MS analysis. The data set is classed as ADME, Microsome.
Data set [13] can be described thus: Stability in human liver microsomes assessed as drug degradation at 1 uM incubated for 60 mins in absence of NADPH by UPLC-MS analysis. The data set is classed as ADME, Microsome. The conditions noted are these: 1 h.
The nature of data set [14]: Stability in mouse liver microsomes assessed as drug degradation at 1 uM incubated for 60 mins in absence of NADPH by UPLC-MS analysis. The data set is classed as ADME, Microsome. To be noted: 1 h.
Data set [15] in a line: Kinetic solubility of compound in water after 30 mins by nephelometry. Type of data set: physicochemical. To be noted: read-out: Kinetic_solubility.
The nature of data set [16]: Kinetic solubility of compound in pH 7.4 phosphate buffer solution after 30 mins by nephelometry. The data set is classed as physicochemical. To be noted: read-out: Kinetic_solubility.

Each structure is given as a SMILES string. In brackets after ≈: the same amount, converted by molar mass.

A word on the IC50: it is the concentration that inhibits the measured activity by half. Regarding `CN(C)S(=O)(=O)c1cc(NC(=O)CCl)ccc1-c1ccccc1`, the IC50 in data set [1] was found to be 0.71 µM.
Still for that read-out and setting: under `CN(C)S(=O)(=O)c1cc(NC(=O)CC#N)ccc1Cl` stands more than 100 µM.
The Ki is a dissociation constant, usually derived from enzyme kinetics or from competition with a known ligand. For the compound `O=C(CCl)Nc1ccc(Cl)c(S(=O)(=O)N2CCOCC2)c1`, the IC50 in data set [1] came to 0.16 µM. Moreover, the concentration at 5 min in [2] worked out at 3.87 µM. Further, in data set [3], the Ki turned out to be 6.7 µM. Also, the Activity in data set [4] was 24.3%. In data set [5], the concentration at 1 h was 7.1 nM. The compound further had a Kinact in data set [6] of 8.1 min⁻¹.
Turning to `CN(C)S(=O)(=O)c1cc(NC(=O)CCl)ccc1C(F)(F)F`, the IC50 in data set [1] came to 0.06 µM. Besides, in data set [2], the concentration at 5 min was 11.6 µM. Moreover, the Ki in data set [3] worked out at 1.2 µM. Further, the Activity in data set [4] worked out at 27.5%. The compound also had a concentration at 2 h in data set [7] of 1.5 nM. In addition, in [6], the Kinact turned out to be 1.1 min⁻¹.
As for `COCCCNS(=O)(=O)c1cc(NC(=O)CCl)ccc1Cl`, the IC50 in data set [1] stood at 0.11 µM. Moreover, the Ki in data set [3] is 9.9 µM. Further, in [6], the Kinact amounted to 1.3 min⁻¹.
In the case of `CN(C)S(=O)(=O)c1cc(NC(=O)C(N)=O)ccc1Cl`, the half-maximal inhibitory concentration (IC50) in data set [1] was more than 1000 µM.
Same read-out and setting: the value for `CN(C)S(=O)(=O)c1cc(NC(=O)CCl)ccc1Br` was 0.15 µM; that for `CN(C)S(=O)(=O)c1cc(NC(=O)CCl)ccc1OC(F)(F)F` was 0.21 µM; that for `CN(C)S(=O)(=O)c1cc(CC2CO2)ccc1Cl` (stereo not given) was more than 100 µM.
Same read-out and setting: the value for `CN(C)S(=O)(=O)c1cc(NC(=O)CCl)ccc1I` was 0.13 µM.
As for `COCCN(C)S(=O)(=O)c1cc(NC(=O)CCl)ccc1Cl`, the IC50 in [1] was 0.08 µM. Besides, the Ki in data set [3] came to 6.9 µM. Besides, the Activity in data set [4] was found to be 61.3%. Besides, in data set [6], the Kinact was 0.61 min⁻¹.
As to `CN(C)S(=O)(=O)c1cc(NC(=O)CCCl)ccc1Cl`, the IC50 in data set [1] is more than 10 µM.
The same measure, in the same setting: under `O=C(CCl)Nc1ccc(Cl)c(S(=O)(=O)NCC2CCCO2)c1` (stereo not given) stands 0.2 µM.
As for `CN(C)S(=O)(=O)c1cc(C2CO2)ccc1Cl` (stereo not given), in [1], the IC50 was found to be 1.2 µM. Also, in data set [3], the Ki was found to be 5 µM. Besides, in data set [4], the Activity worked out at 43.7%. In addition, in [6], the Kinact stood at 0.47 min⁻¹.
For the compound `CN(C)S(=O)(=O)c1cc(/C=C/S(=O)(=O)F)ccc1Cl`, the IC50 in data set [1] is more than 10 µM.
As to `COCCNS(=O)(=O)c1cc(NC(=O)CCl)ccc1Cl`, the IC50 in data set [1] is 0.03 µM. Further, in data set [3], the Ki was found to be 2.5 µM. Also, the Activity in data set [4] turned out to be 47.8%. The Kinact in data set [6] is 0.8 min⁻¹.
In the case of `CN(C)S(=O)(=O)c1cc(NCC#N)ccc1Cl`, in data set [1], the IC50 is more than 100 µM.
On the same count and under the same terms, the value for `CC(Cl)C(=O)Nc1ccc(Cl)c(S(=O)(=O)N(C)C)c1` (stereo not given) was more than 10 µM.
Turning to `CC(C)NS(=O)(=O)c1cc(NC(=O)CCl)ccc1Cl`, the IC50 in data set [1] worked out at 0.07 µM. Besides, the Ki in [3] worked out at 4.8 µM. Besides, the Activity in data set [4] stood at 36%. For the same compound, in [6], the Kinact was 3 min⁻¹.
As usually defined, the Cmax is the maximum level reached in the sampled fluid or tissue. What is called half-life is the time needed for the level to fall by half in the phase considered. `O=C(CCl)Nc1ccc(C(F)(F)F)c(S(=O)(=O)N2CCOCC2)c1`: in data set [1], the 50% inhibitory concentration (IC50) stood at 0.25 µM. In addition, the Ki in data set [3] is 0.61 µM. The Activity in data set [4] was 3.4%. The highest level in data set [8] (Cmax) was 6.37 µM. In addition, in [9], the half-life was 84 min. Moreover, the concentration at 4 h in [10] is 6.5 nM. In data set [6], this compound came in with a Kinact of 0.85 min⁻¹.
In the case of `COCCCN(C)S(=O)(=O)c1cc(NC(=O)CCl)ccc1Cl`, the IC50 in [1] came to 0.16 µM. For the same compound, in data set [4], the Activity amounted to 41.5%.
On to `C=CC(=O)Nc1ccc(Cl)c(S(=O)(=O)N(C)C)c1`, for which, in [4], the Activity is 92.8%.
Regarding `CNS(=O)(=O)c1cc(NC(=O)CCl)ccc1Cl`, in [1], the IC50 was 0.58 µM.
Regarding `C/C=C/C(=O)Nc1ccc(Cl)c(S(=O)(=O)N(C)C)c1`, the IC50 in data set [1] was more than 100 µM.
Same read-out and setting: under `O=C(CCl)Nc1ccc(Cl)c(S(=O)(=O)NCCO)c1` stands 0.7 µM.
For the compound `CN(C)S(=O)(=O)c1cc(NC(=O)CCl)ccc1Cl`, the Activity in [4] was determined as 66.8%. Further, the half-life at 1 µM is less than 2 min in [11] and 7 min in [12]. Further, the Stability result in [13] and in data set [14] was “Unstable” throughout. Besides, the Cmax in [8] stood at 9.38 µM. The compound also yielded a concentration at 1 h in data set [5] of 32.1 nM. The solubility kinetic at 0.5 h in data set [15] and in data set [16] was 50 to 100 µg/mL (≈ 161 to 321 µM) throughout.
Regarding `CC(=O)C(=O)Nc1ccc(Cl)c(S(=O)(=O)N(C)C)c1`, in [1], the IC50 is more than 10 µM.
Still for that read-out and setting: under `CN(CCO)S(=O)(=O)c1cc(NC(=O)CCl)ccc1Cl` stands 0.18 µM; under `CN(C)S(=O)(=O)c1cc(CCCS(=O)(=O)F)ccc1Cl`, 3.2 µM.
On the same count and under the same terms, under `CN(C)S(=O)(=O)c1cc(NC(=O)CF)ccc1Cl` stands more than 100 µM; under `O=C(CCl)Nc1ccc(Cl)c(S(=O)(=O)NC2CCOC2)c1` (stereo not given), 0.34 µM.
As for `CN(C)S(=O)(=O)c1cc(CS(=O)(=O)F)ccc1Cl`, the IC50 in [1] came out at 0.8 µM. Besides, the Ki in data set [3] came to 9.6 µM. In data set [4], the Activity turned out to be 39.8%. In [6], this compound had a Kinact of 2.3 min⁻¹.
As for `CN(C)S(=O)(=O)c1cc(CCS(=O)(=O)F)ccc1Cl`, the IC50 in [1] is more than 10 µM.

For the origin of these results see ChEMBL document CHEMBL4402572, “Development of Benzenesulfonamide Derivatives as Potent Glutathione Transferase Omega-1 Inhibitors” (J Med Chem, 2020).
